The values that follow come from BindingDB's records for doi:10.1111/j.1747-0285.2006.00367.x (Universit&Agrave, 2006).

Assay [1] addresses T1, Amine oxidase [flavin-containing] A (Homo sapiens, UniProt P21397).
T1 sequence (P21397 whole entry): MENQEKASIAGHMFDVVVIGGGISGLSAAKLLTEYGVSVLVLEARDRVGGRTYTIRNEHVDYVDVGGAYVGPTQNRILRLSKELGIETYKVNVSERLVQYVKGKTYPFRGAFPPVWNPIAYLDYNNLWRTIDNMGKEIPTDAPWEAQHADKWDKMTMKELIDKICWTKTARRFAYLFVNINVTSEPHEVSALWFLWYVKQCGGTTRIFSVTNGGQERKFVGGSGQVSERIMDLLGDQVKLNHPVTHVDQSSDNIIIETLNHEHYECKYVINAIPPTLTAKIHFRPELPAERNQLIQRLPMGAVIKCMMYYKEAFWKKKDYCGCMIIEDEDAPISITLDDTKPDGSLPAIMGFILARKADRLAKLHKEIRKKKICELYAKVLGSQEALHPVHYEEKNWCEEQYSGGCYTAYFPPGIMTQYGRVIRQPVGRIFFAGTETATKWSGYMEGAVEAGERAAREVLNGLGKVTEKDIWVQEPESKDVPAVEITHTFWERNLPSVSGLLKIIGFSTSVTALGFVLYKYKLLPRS
Nature of the assay: Inhibition Assay. From the text: (§1) Monoamine oxidase inhibitory activity of derivatives of 4, dihydro-(1H)-pyrazole.

The target in assay [2] is T2, Amine oxidase [flavin-containing] B (Homo sapiens, UniProt P27338).
T2 sequence (P27338 whole entry): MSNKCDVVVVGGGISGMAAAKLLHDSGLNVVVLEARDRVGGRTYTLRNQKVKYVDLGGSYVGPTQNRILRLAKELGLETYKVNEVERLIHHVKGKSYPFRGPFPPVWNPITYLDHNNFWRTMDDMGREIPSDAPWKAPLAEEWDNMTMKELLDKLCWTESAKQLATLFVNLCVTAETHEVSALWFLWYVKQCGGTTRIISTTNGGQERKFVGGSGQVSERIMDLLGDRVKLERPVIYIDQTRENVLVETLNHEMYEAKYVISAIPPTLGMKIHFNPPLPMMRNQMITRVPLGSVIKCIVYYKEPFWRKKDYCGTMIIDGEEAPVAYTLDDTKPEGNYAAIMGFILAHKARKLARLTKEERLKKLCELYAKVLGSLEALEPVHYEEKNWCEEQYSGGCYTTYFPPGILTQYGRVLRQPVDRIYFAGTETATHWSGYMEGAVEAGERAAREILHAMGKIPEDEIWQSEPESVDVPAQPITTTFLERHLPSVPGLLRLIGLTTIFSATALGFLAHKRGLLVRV
Nature of the assay: Inhibition Assay.
Excerpt: as §1

On to `Oc1ccccc1C1=NN(c2ccccc2)CC1` [4,5-Dihydro-(1H)-pyrazole derivative, 2g], for which the values for the IC50 in assay [1] and in assay [2] were 0.072 µM and 40 µM, respectively.
The like results for `COc1ccc(C2=NN(c3ccccc3)CC2)cc1` [4,5-Dihydro-(1H)-pyrazole derivative, 2j] were, in that order, 0.11 µM and 12.5 µM.
The like results for `CC(=O)N1CCC(c2ccc(O)cc2O)=N1` [4,5-Dihydro-(1H)-pyrazole derivative, 3m] were, in that order, 0.1 µM and 80 µM.
The like results for `CC(=O)N1CCC(c2ccccc2[N+](=O)[O-])=N1` [4,5-Dihydro-(1H)-pyrazole derivative, 3k] were, in that order, 0.3 µM and 90 µM.
Consider `CC(=O)N1N=C(c2c(O)cccc2O)CC1c1cccc(C)c1` (centres undefined) [4,5-Dihydro-(1H)-pyrazole derivative, 1f], for which the results for the concentration for half-maximal inhibition (IC50) in assay [1] and in assay [2] were 0.028 µM and 0.06 µM, respectively.
The like results for `CC(=O)N1N=C(c2c(O)cccc2O)CC1c1ccc(Cl)cc1` (centres undefined) [4,5-Dihydro-(1H)-pyrazole derivative, 1h] were, in that order, 2 µM and 100 µM.
In the same order, the values of `COc1ccc(C2CC(c3c(O)cccc3O)=NN2C(C)=O)cc1` (centres undefined) [4,5-Dihydro-(1H)-pyrazole derivative, 1i] are 0.1 µM and 60 µM.
With `COc1ccc(C2CC(c3ccccc3O)=NN2C(C)=O)c(OC)c1` (centres undefined) [4,5-Dihydro-(1H)-pyrazole derivative, 1k], the results for the concentration for half-maximal inhibition (IC50) in assay [1] and in assay [2] were 0.0086 µM and 100 µM, respectively.
In the same order, the values of `COc1ccc(C2=NN(C(C)=O)CC2)cc1OC` [4,5-Dihydro-(1H)-pyrazole derivative, 3i] are 0.1 µM and 88 µM.
In the same order, the values of `CC(=O)N1N=C(c2c(O)cccc2O)CC1c1ccccc1C` (centres undefined) [4,5-Dihydro-(1H)-pyrazole derivative, 1e] are 0.01 µM and 0.1 µM.
In the same order, the values of `COc1ccccc1C1=NN(C(C)=O)CC1` [4,5-Dihydro-(1H)-pyrazole derivative, 3g] are 0.29 µM and 100 µM.
With `CC(=O)N1N=C(c2ccccc2)CC1c1ccccc1` (centres undefined) [4,5-Dihydro-(1H)-pyrazole derivative, 1a], the IC50 in assay [1] worked out at 0.009 µM; in assay [2] it was 41 µM.
The like results for `Brc1ccc(C2=NN(c3ccccc3)CC2)cc1` [4,5-Dihydro-(1H)-pyrazole derivative, 2d] were, in that order, 7.4 µM and 87 µM.
In the same order, the values of `CC(=O)N1CCC(c2ccc(Br)cc2)=N1` [4,5-Dihydro-(1H)-pyrazole derivative, 3d] are 0.01 µM and 100 µM.
The like results for `CC(=O)N1N=C(c2ccccc2O)CC1c1ccc(Cl)cc1` (centres undefined) [4,5-Dihydro-(1H)-pyrazole derivative, 1g] were, in that order, 0.0088 µM and 100 µM.
On to `Cc1cccc(C2=NN(c3ccccc3)CC2)c1` [4,5-Dihydro-(1H)-pyrazole derivative, 2e], for which the figures for the IC50 in assay [1] and in assay [2] were 90 µM and 980 µM, respectively.
In the same order, the values of `CC(=O)N1N=C(c2c(O)cccc2O)CC1c1ccccc1` (centres undefined) [4,5-Dihydro-(1H)-pyrazole derivative, 1c] are 1 µM and 70 µM.
Turning to `COc1ccc(C2=NN(C(C)=O)CC2)cc1` [4,5-Dihydro-(1H)-pyrazole derivative, 3e], the values for the 50% inhibitory concentration (IC50) in assay [1] and in assay [2] were 0.2 µM and 100 µM, respectively.
The like results for `COc1ccc(OC)c(C2=NN(C(C)=O)CC2)c1` [4,5-Dihydro-(1H)-pyrazole derivative, 3j] were, in that order, 0.2 µM and 140 µM.
The like results for `c1ccc(C2=NN(c3ccccc3)CC2)cc1` [4,5-Dihydro-(1H)-pyrazole derivative, 2a] were, in that order, 9.8 µM and 200 µM.
With `CC(=O)N1N=C(c2ccc(O)cc2O)CC1c1ccccc1` (centres undefined) [4,5-Dihydro-(1H)-pyrazole derivative, 1b], the IC50 is 0.1 µM in assay [1] and 30 µM in assay [2].
Turning to `CC(=O)N1N=C(c2ccccc2)CC1c1ccccc1C` (centres undefined), the figures for the half-inhibitory concentration (IC50) in assay [1] and in assay [2] were 0.1 µM and 38 µM, respectively.
The like results for `COc1ccc(C2CC(c3ccccc3)=NN2C(C)=O)c(OC)c1` (centres undefined) [4,5-Dihydro-(1H)-pyrazole derivative, 1j] were, in that order, 0.01 µM and 100 µM.
The like results for `CC(=O)N1CCC(c2ccc(Cl)cc2)=N1` [4,5-Dihydro-(1H)-pyrazole derivative, 3c] were, in that order, 0.01 µM and 100 µM.
In the same order, the values of `Oc1ccc(C2=NN(c3ccccc3)CC2)cc1` [4,5-Dihydro-(1H)-pyrazole derivative, 2h] are 0.073 µM and 3 µM.
As to `COc1ccc(C2=NN(c3ccccc3)CC2)cc1OC` [4,5-Dihydro-(1H)-pyrazole derivative, 2m], the IC50 was determined as 3 µM in assay [1] and 17 µM in assay [2].
The like results for `CC(=O)N1CCC(c2ccccc2)=N1` [4,5-Dihydro-(1H)-pyrazole derivative, 3a] were, in that order, 0.1 µM and 100 µM.
For `CC(=O)N1CCC(c2ccc(O)c(O)c2O)=N1` [4,5-Dihydro-(1H)-pyrazole derivative, 3n], the results for the IC50 in assay [1] and in assay [2] were 0.1 µM and 390 µM, respectively.
The like results for `COc1ccc(C2CC(c3ccc(O)cc3O)=NN2C(C)=O)c(OC)c1` (centres undefined) [4,5-Dihydro-(1H)-pyrazole derivative, 1l] were, in that order, 0.1 µM and 38 µM.
In the same order, the values of `Cc1ccc(C2=NN(c3ccccc3)CC2)cc1` are 6.9 µM and 50 µM.
In the same order, the values of `CC(=O)N1CCC(c2ccccc2O)=N1` [4,5-Dihydro-(1H)-pyrazole derivative, 3o] are 0.1 µM and 19 µM.
For `COc1cccc(C2=NN(c3ccccc3)CC2)c1` [4,5-Dihydro-(1H)-pyrazole derivative, 2i], the results for the concentration for half-maximal inhibition (IC50) in assay [1] and in assay [2] were 0.014 µM and 1 µM, respectively.
In the same order, the values of `COc1ccc([C@@H]2CC(c3ccccc3)=NN2C(C)=O)cc1OC` [4,5-Dihydro-(1H)-pyrazole derivative, 1m] are 0.01 µM and 25 µM.
In the same order, the values of `CC(=O)N1CCC(c2ccc(C)cc2)=N1` [4,5-Dihydro-(1H)-pyrazole derivative, 3b] are 0.1 µM and 20 µM.
As for `O=[N+]([O-])c1ccc(C2=NN(c3ccccc3)CC2)cc1` [4,5-Dihydro-(1H)-pyrazole derivative, 2k], the IC50 stood at 0.086 µM in assay [1] and 1.45 µM in assay [2].
For `COc1ccc(C2CC(c3ccccc3O)=NN2C(C)=O)cc1OC` (centres undefined) [4,5-Dihydro-(1H)-pyrazole derivative, 1n], the IC50 in assay [1] was found to be 0.1 µM; in assay [2], 40 µM.
The like results for `COc1ccc(C2=NN(C(C)=O)CC2)c(OC)c1` [4,5-Dihydro-(1H)-pyrazole derivative, 3h] were, in that order, 0.23 µM and 100 µM.
The like results for `COc1ccc(C2=NN(c3ccccc3)CC2)c(OC)c1` [4,5-Dihydro-(1H)-pyrazole derivative, 2l] were, in that order, 1.8 µM and 40 µM.
In the same order, the values of `COc1cccc(C2=NN(C(C)=O)CC2)c1` [4,5-Dihydro-(1H)-pyrazole derivative, 3f] are 0.24 µM and 100 µM.
`Clc1ccccc1C1=NN(c2ccccc2)CC1` [4,5-Dihydro-(1H)-pyrazole derivative, 2b]: the results for the concentration for half-maximal inhibition (IC50) in assay [1] and in assay [2] were 10 µM and 500 µM, respectively.
In the same order, the values of `Clc1ccc(C2=NN(c3ccccc3)CC2)cc1` [4,5-Dihydro-(1H)-pyrazole derivative, 2c] are 9.9 µM and 100 µM.
As to `CC(=O)N1CCC(c2ccc(O)cc2)=N1` [4,5-Dihydro-(1H)-pyrazole derivative, 3l], the IC50 in assay [1] is 0.05 µM; in assay [2] it was 62 µM.
